# Experimental data taken from the supplement of paper PMC10307832.
# Legend:
# Assay in all cases: relative viability (nuclei count vs DMSO), 5 days (fraction); higher = more cells survive
# Avagacestat + Linsitinib = compound: NC(=O)[C@@H](CCC(F)(F)F)N(Cc1ccc(-c2ncon2)cc1F)S(=O)(=O)c1ccc(Cl)cc1 [Avagacestat] + C[C@]1(O)C[C@@H](c2nc(-c3ccc4ccc(-c5ccccc5)nc4c3)c3c(N)nccn32)C1 [Linsitinib] (partner 1 µM)
# Procedure, shortened: (§1)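 A single step with final 0.05% Triton X-100, 1% formaldehyde and 1 ug/ml Hoechst fixed the cells and stained nuclei 5 days after treatment. Lung cancer cell lines in 1536-well plates had been treated by pin tool the day after seeding with one drug alone or a fixed anchor-drug dose plus five library-drug doses (not always all listed) in √10 steps, and nuclei were counted on 4× images. Relative viability is the ratio of nuclei in treated wells to nuclei in vehicle wells, taken as the median of duplicate plates.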
# Avagacestat + Pemetrexed = compound: NC(=O)[C@@H](CCC(F)(F)F)N(Cc1ccc(-c2ncon2)cc1F)S(=O)(=O)c1ccc(Cl)cc1 [Avagacestat] + Nc1nc2[nH]cc(CCc3ccc(C(=O)N[C@@H](CCC(=O)O)C(=O)O)cc3)c2c(=O)[nH]1 [Pemetrexed] (partner 0.2 µM)
# Procedure, shortened: as §1
# Avagacestat + Vorinostat = compound: NC(=O)[C@@H](CCC(F)(F)F)N(Cc1ccc(-c2ncon2)cc1F)S(=O)(=O)c1ccc(Cl)cc1 [Avagacestat] + O=C(CCCCCCC(=O)Nc1ccccc1)NO [Vorinostat] (partner 1 µM)
# Procedure, shortened: as §1
# Avagacestat + Olaparib = compound: NC(=O)[C@@H](CCC(F)(F)F)N(Cc1ccc(-c2ncon2)cc1F)S(=O)(=O)c1ccc(Cl)cc1 [Avagacestat] + O=C(c1cc(Cc2n[nH]c(=O)c3ccccc23)ccc1F)N1CCN(C(=O)C2CC2)CC1 [Olaparib] (partner 8 µM)
# Procedure, shortened: as §1
Cell Line,relative viability (Avagacestat + Linsitinib; first compound 0.08 µM),relative viability (Avagacestat + Linsitinib; first compound 0.253 µM),relative viability (Avagacestat + Linsitinib; first compound 0.8 µM),relative viability (Avagacestat + Linsitinib; first compound 2.53 µM),relative viability (Avagacestat + Linsitinib; first compound 8 µM),relative viability (Avagacestat + Pemetrexed; first compound 0.08 µM),relative viability (Avagacestat + Pemetrexed; first compound 0.253 µM),relative viability (Avagacestat + Pemetrexed; first compound 0.8 µM),relative viability (Avagacestat + Pemetrexed; first compound 2.53 µM),relative viability (Avagacestat + Pemetrexed; first compound 8 µM),relative viability (Avagacestat + Vorinostat; first compound 0.08 µM),relative viability (Avagacestat + Vorinostat; first compound 0.253 µM),relative viability (Avagacestat + Vorinostat; first compound 0.8 µM),relative viability (Avagacestat + Vorinostat; first compound 2.53 µM),relative viability (Avagacestat + Vorinostat; first compound 8 µM),relative viability (Avagacestat + Olaparib; first compound 0.08 µM),relative viability (Avagacestat + Olaparib; first compound 0.253 µM),relative viability (Avagacestat + Olaparib; first compound 0.8 µM),relative viability (Avagacestat + Olaparib; first compound 2.53 µM),relative viability (Avagacestat + Olaparib; first compound 8 µM)
201T,1.02,1.07,1.13,0.985,0.99,0.314,0.352,0.351,0.301,0.335,1.01,1.03,0.925,0.857,0.86,0.925,0.812,0.871,0.79,0.737
A-427,1.11,1.24,1.16,1.15,1.22,1.07,1.09,1.22,1.04,1.07,0.958,0.945,1.03,0.946,0.952,0.832,0.778,0.83,0.684,0.751
ABC-1,0.979,1.06,0.866,0.786,0.737,,,,,,1.22,1.14,1.71,1.15,1.02,0.904,0.512,0.836,0.776,0.757
BEN,0.898,1.07,1.02,0.76,0.847,0.879,0.897,0.851,0.904,0.807,0.589,0.653,0.579,0.526,0.588,1.12,1.24,1.05,0.838,1.05
CAL-12T,0.94,0.865,0.931,0.768,0.693,1.7,1.49,1.67,1.42,1.25,0.918,1.1,0.796,0.729,0.798,0.73,0.715,0.773,0.782,0.83
COR-L23,1.21,0.896,0.869,0.764,0.573,0.178,0.197,0.207,0.214,0.201,0.474,0.457,0.484,0.366,0.332,0.326,0.3,0.339,0.308,0.284
COR-L 105,0.99,0.972,0.59,0.964,0.755,1.2,1.21,1.12,0.983,1.02,1.08,0.891,0.87,0.792,0.884,0.724,0.664,0.845,0.601,0.565
Calu-6,1.05,1.04,1.07,1.03,0.784,,,,,,,,,,,0.7,0.862,0.722,0.609,0.585
ChaGo-K-1,,,,,,0.275,0.271,0.265,0.266,0.267,0.783,0.874,0.79,0.755,0.692,0.431,0.435,0.394,0.437,0.394
EBC-1,0.88,0.914,1.09,0.995,0.649,,,,,,,,,,,0.76,0.868,0.704,0.799,0.537
EKVX,1.22,0.996,1.25,0.847,0.703,0.5,0.462,0.529,0.439,0.373,0.826,0.783,0.904,0.75,0.68,1.04,0.926,0.918,0.73,0.769
EMC-BAC-2,0.882,0.953,0.84,0.738,0.784,0.52,0.595,0.634,0.557,0.544,0.662,0.581,0.803,0.535,0.51,0.542,0.626,0.623,0.548,0.616
EPLC-272H,1.4,1.2,1.4,1.32,0.933,0.322,0.429,0.318,0.31,0.267,0.413,0.318,0.539,0.367,0.321,0.939,1.04,0.905,0.783,0.635
H3255,1.02,1.17,0.975,0.899,0.898,0.57,0.622,0.591,0.552,0.557,0.825,0.89,1.03,0.861,0.7,0.626,0.663,0.609,0.621,0.572
HARA,1.29,1.28,1.01,0.79,0.907,0.227,0.203,0.226,0.257,0.244,0.572,0.551,0.524,0.716,0.549,0.852,0.958,0.869,0.501,0.834
HCC-15,0.985,0.998,0.874,0.936,0.755,0.227,0.22,0.232,0.212,0.194,0.976,1.03,0.979,0.796,0.818,0.755,0.887,0.862,0.77,0.674
HCC-44,0.703,0.709,0.681,0.504,0.598,0.733,0.68,0.706,0.66,0.639,1.09,1.14,1.19,1.07,1.21,1.04,1.05,1.07,1.01,1
HCC-78,0.568,0.54,0.706,0.396,0.406,0.901,0.976,0.933,0.883,0.851,0.499,0.458,0.416,0.391,0.351,0.786,0.948,0.632,0.67,0.712

Cell Line,relative viability (Avagacestat + Linsitinib; first compound 0.08 µM),relative viability (Avagacestat + Linsitinib; first compound 0.253 µM),relative viability (Avagacestat + Linsitinib; first compound 0.8 µM),relative viability (Avagacestat + Linsitinib; first compound 2.53 µM),relative viability (Avagacestat + Linsitinib; first compound 8 µM),relative viability (Avagacestat + Pemetrexed; first compound 0.08 µM),relative viability (Avagacestat + Pemetrexed; first compound 0.253 µM),relative viability (Avagacestat + Pemetrexed; first compound 0.8 µM),relative viability (Avagacestat + Pemetrexed; first compound 2.53 µM),relative viability (Avagacestat + Pemetrexed; first compound 8 µM),relative viability (Avagacestat + Vorinostat; first compound 0.08 µM),relative viability (Avagacestat + Vorinostat; first compound 0.253 µM),relative viability (Avagacestat + Vorinostat; first compound 0.8 µM),relative viability (Avagacestat + Vorinostat; first compound 2.53 µM),relative viability (Avagacestat + Vorinostat; first compound 8 µM),relative viability (Avagacestat + Olaparib; first compound 0.08 µM),relative viability (Avagacestat + Olaparib; first compound 0.253 µM),relative viability (Avagacestat + Olaparib; first compound 0.8 µM),relative viability (Avagacestat + Olaparib; first compound 2.53 µM),relative viability (Avagacestat + Olaparib; first compound 8 µM)
HCC-366,1.06,0.782,0.835,0.471,0.373,0.199,0.195,0.191,0.161,0.142,0.472,0.426,0.437,0.31,0.385,0.45,0.461,0.378,0.402,0.308
HCC-827,1.03,1.02,0.931,0.995,1.08,0.304,0.271,0.296,0.221,0.257,0.75,0.849,0.855,0.946,0.832,0.724,0.734,0.687,0.607,0.656
HOP-62,1.06,0.852,0.992,0.919,0.94,0.344,0.359,0.329,0.312,0.29,0.822,0.667,0.65,0.588,0.564,0.411,0.502,0.211,0.564,0.371
LC-2-ad,0.819,0.896,0.87,0.778,0.807,0.286,0.276,0.264,0.263,0.273,0.73,0.847,0.74,0.654,0.595,0.853,0.794,0.826,0.783,0.679
LCLC-97TM1,0.161,0.212,0.155,0.151,0.163,0.177,0.177,0.159,0.166,0.146,1.01,0.847,0.862,0.838,0.57,0.533,0.463,0.555,0.309,0.307
LCLC-103H,1.08,1.01,1.24,1.01,0.877,0.448,0.412,0.433,0.456,0.486,0.807,0.759,0.846,0.864,0.673,0.809,0.617,0.845,0.745,0.766
LK-2,0.966,0.49,0.386,,0.505,0.272,0.294,0.314,0.251,0.264,0.196,0.353,0.265,,0.22,0.846,0.806,0.8,0.505,0.77
LOU-NH91,0.966,0.883,1.01,0.786,0.929,0.389,0.344,0.431,0.427,0.336,1,0.878,1.03,0.798,0.885,0.964,0.983,0.966,0.914,0.926
LU99A,0.598,0.561,0.63,0.563,0.644,0.25,0.232,0.182,0.226,0.155,0.611,0.541,0.624,0.468,0.481,0.254,0.259,0.269,0.265,0.243
NCI-H727,0.252,0.342,0.35,0.278,0.26,,,,,,1.27,1.19,1.21,1.18,1.19,0.735,0.875,0.698,0.745,0.788
NCI-H1299,0.987,1.12,1,0.988,0.926,,,,,,,,,,,0.97,1.07,0.975,0.979,0.929
NCI-H1563,1.25,1.26,1.18,1.03,1,0.811,0.664,0.82,0.711,0.683,,,,,,,,,,
NCI-H1648,,,,,,0.572,0.505,0.451,0.467,0.505,0.512,0.374,0.31,0.35,0.276,0.678,0.806,0.516,0.437,0.534
NCI-H1650,,,,,,0.357,0.387,0.365,0.381,0.382,0.593,0.692,0.51,0.599,0.67,0.961,0.893,0.86,0.917,0.936
NCI-H1703,0.982,0.768,0.854,0.784,0.93,,,,,,,,,,,0.489,0.297,0.421,0.264,0.335
NCI-H1792,0.648,0.424,0.692,0.383,0.368,1.54,1.08,1.28,0.818,0.451,,,,,,0.673,0.605,0.563,0.408,0.726
NCI-H2170,,,,,,0.258,0.268,0.23,0.274,0.261,1.35,0.995,0.821,0.876,0.617,0.78,0.722,0.612,0.64,0.582
NCI-H2342,,,,,,0.849,0.803,0.903,0.725,0.782,0.845,0.822,0.842,0.705,0.774,0.441,0.384,0.486,0.458,0.451
